Source: patent US10793533B2, “Dimeric contrast agents” (BRACCO IMAGING S.P.A., priority 2016, dated 2020)

Experiment: Relaxometric properties: longitudinal relaxivity r1p in human plasma
Type: physicochemical
Conditions: expressed per mM gadolinium; for r1p at 0.47 T 37° C., human plasma: 0.47 T (20 MHz); for r1p at 1.41 T 37° C., human plasma: 1.41 T (60 MHz)
Experimental: The relaxometric properties of some representative complex compounds according to the invention have been determined at different magnetic field strengths, e.g. including 0.47 and 1.41 T, at 37° C., in human plasma and compared with relaxivity values measured, at the same conditions, for some Gd-complex of the market having an analogous cyclic coordination cage.
The longitudinal water proton relaxation rate (R1=1/T1) was measured at 0.47 T with a Minispec MQ-20 spectrometer (Bruker Biospin, Germany) operating at a proton Larmor frequency of 20 MHz; MR experiments at 1.41 T were performed using a Minispec MQ-60 spectrometer (Bruker Biospin, Germany) operating at a proton Larmor frequency of 60 MHz.
All test articles were used as supplied and diluted in the selected medium (human plasma) by weighting the required amount of paramagnetic chelated complex to get a starting solution of 5 or 10 mM concentration in gadolinium.
Relaxivity Measurements Five different concentration samples (0.1, 0.25, 0.5, 0.75 and 1 mM in gadolinium) for each medium have been prepared by further dilution of the starting 5 or 10 mM solution.
Relaxivity measurements were performed at 0.47 T and 1.41 T at a preset temperature sample of 37° C., kept constant by means of a thermostatic bath connected to the sample holder of the spectrometer. The five sample solutions have been preliminary pre-heated at 37° C. in an external thermostatic bath and then left 10 minutes inside the internal bath to assure the stabilization of the temperature. Longitudinal relaxation time T1 was measured by means of a standard inversion recovery sequence, where the inversion time (TI) was varied from 10 ms to at least 5 times T1 in 15 steps. Statistical analysis (mono-exponential fitting for T1 measurement, linear fitting for the evaluation of longitudinal relaxivity) was performed by Mathematica® (Wolfram, USA). Errors on the estimated parameters were evaluated by the fitting procedure.
The relaxivity values r1p of some representative compounds according to the invention, obtained in human plasma at 37° C., are summarized in the following Table A, together with the structure of tested compounds and the strength of the applied magnetic field (in T), and compared with corresponding values measured for two commercial contrast agents in clinical practice having a macrocyclic chelating cage.

Compound | r1p at 0.47 T 37° C., human plasma [mM⁻¹ s⁻¹] | r1p at 1.41 T 37° C., human plasma [mM⁻¹ s⁻¹]
O=C(O)CN1CCN(CC(=O)O)CCN(CC(O)CN(CCOCCOCCO)CC(O)CN2CCN(CC(=O)O)CCN(CC(=O)O)CCN(CC(=O)O)CC2)CCN(CC(=O)O)CC1 (stereo not drawn) | 10.9 | 10.4
COCCOCCOCCOCCN(CC(O)CN1CCN(CC(=O)O)CCN(CC(=O)O)CCN(CC(=O)O)CC1)CC(O)CN1CCN(CC(=O)O)CCN(CC(=O)O)CCN(CC(=O)O)CC1 (stereo not drawn) | 10.6 | 10.3
O=C(O)CN1CCN(CC(=O)O)CCN(CC(O)CN(CC(O)CN2CCN(CC(=O)O)CCN(CC(=O)O)CCN(CC(=O)O)CC2)C(COCCOCCO)COCCOCCO)CCN(CC(=O)O)CC1 (stereo not drawn) | 10.1 | 9.8
CC(O)CN1CCN(CC(=O)O)CCN(CC(=O)O)CCN(CC(=O)O)CC1 (stereo not drawn) (Gd complex, metal not drawn) [ProHance, reference compound] | 4.9 | 4.15
COCCOCCOCCN(CCN(CCOCCOCCOC)CC(O)CN1CCN(CC(=O)O)CCN(CC(=O)O)CCN(CC(=O)O)CC1)CC(O)CN1CCN(CC(=O)O)CCN(CC(=O)O)CCN(CC(=O)O)CC1 (stereo not drawn) [Chelate Complex 9] | 12.1 | 11.5
O=C(O)CN1CCN(CC(=O)O)CCN(CC(=O)O)CCN(CC(=O)O)CC1 [reference compound] | 4.5 | 3.6
